In patent US11534445B2, “Compositions and methods for immune-mediated cancer therapy” (Teclison Limited, priority 2015, dated 2022):
“Also recorded” adds a separate entry of the source.

Assays:
[1] = tested on: NCI-H460 human lung cancer cells; assay: NCI-H460 lung cancer xenograft in BALB/c nude mice: tirapazamine plus vascular disrupting agent; type: in vivo, mouse; details: combretastatin A4 10 mg/kg i.v. or DMXAA 20 mg/kg i.v., 3-5 min after tirapazamine 30 mg/kg i.p.
Protocol: Materials and methods: Human lung cancer NCI-H460 cells were purchased from ATCC and used in this study. Cells were sub-cultured within 5 passages before inoculated into the mice. After the animals' acclimation period, approximately 1.5×10^6 NCI-H460 cells in 200 μL of serum-free media/matrigel (50:50 v/v) were injected subcutaneously to each mouse under anesthesia with 3-4% isoflurane. BALB/c nude mice, male, about 4-5 weeks and 18-20 g in weight were purchased from Shanghai SLAC Laboratory Animal Co. Ltd., China and housed in vivarium in 3-5 mice/cage by treatment group. Mice had free access to food (irradiated, Shanghai SLAC Laboratory Animal Co. Ltd. China) and water (municipal tap water filtered by Mol Ultrapure Water System).
Mice from each group were euthanized with CO2 asphyxiation followed by cervical dislocation at day 18 after the first dose, tumors were collected, weighed, and their pictures taken. The formalin fixed tumors were used for histopathology work. After formalin fixation, the tumors were paraffin embedded to get FFPE blocks. One block was made for each tumor chunk from one mouse. The FFPE blocks were sectioned at about 4 μm thick and processed for H&E staining, histopathology examination, and quantification of tumor necrosis. Detailed results are discussed further below. […]

[2] = mouse, in vivo
Protocol: (§1) Treatment of tumor-bearing HBx mice with tirapazamine and hepatic artery ligation: The HBx transgenic mice were subjected to the left hepatic artery ligation for 40 min and the silk ligation was subsequently untied. During the studies on the drug effects, 0.9% saline, doxorubicin (10 mg/kg), or TPZ (3 mg/kg) were injected into the tail vein of each mouse for 7 min before the hepatic artery ligation. After completion of the injection, a midline laparotomy was performed to expose the left lobe of liver and liver hilum to dissect the left or common hepatic artery for transient ligation. All mice were anaesthetized with intraperitoneal injection of 400 mg/kg avertin (Sigma-Aldrich, St. Louis, Mo., USA) during experiments. Serial serum samples were collected for evaluating the ALT and total bilirubin by using ARKRAY Spotchem EZ Chemistry Analyzer SP-4430 (Arkray, Inc., Kyoto, Japan) within the first week. After 1 or 7 days, the liver tissues were collected for HE staining.

[3] = tested on: hepatocellular carcinoma (HCC) in HBx transgenic mice; assay: Tirapazamine or doxorubicin plus left hepatic artery ligation (HAL) in tumor-bearing HBx transgenic mice: tumor necrosis by H&E histology; type: in vivo, mouse; details: for necrosis of HCCs in the territory of the left HAL, Day 7 (H&E): tirapazamine 3 mg/kg (n=3) or doxorubicin 10 mg/kg (n=2) IV + left HAL 40 min; for necrosis in the HCC within the territory of HAL, Day 1 post-treatment: tirapazamine 3 mg/kg or doxorubicin 10 mg/kg IV tail vein + transient left HAL, n=1 per group, histopathology
Protocol: Materials and methods: All the HBx transgenic mice were bred and followed-up in a specific pathogen-free facility; the tails of individual mice were subsequently collected for the genotyping process on weaning at 3 weeks of age. […] Transgenic mice having tumors 0.5-2 cm in diameter were used for the study.
as §1
Histology and morphometric analysis of tumor necrosis: For each mouse, the liver tissue containing the whole tumor and the adjacent non-tumorous region were fixed overnight in 10% formaldehyde and embedded in paraffin. The liver tissue sections (3 μm thickness) crossing the whole tumor were subjected to hematoxylin and eosin (H&E) staining for histological analysis. The percentage of necrosis in each tumor was quantified by dividing the necrotic area by the total tumor area in five cross sections covering the whole tumor, by using the ImageJ software (Version 1.46r, National Institutes of Health, Bethesda, Md., USA).
The HBx transgenic mice spontaneously develop hepatocellular carcinoma at approximately 18 months. […] Next, the efficacy of tirapazamine in combination with HAL was investigated and compared with a commonly used chemotherapy agent, doxorubicin, in TACE. A small group was first tested to compare the effects of saline (n=1), doxorubicin (10 mg/kg, n=1) and tirapazamine (3 mg/kg, n=1) to treat HBx transgenic mice that had palpable HCC, along with transient left HAL. Mice were sacrificed 1 day after treatment with tirapazamine and transient left HAL.
The same study was conducted to examine the histopathology changes at 7 days post treatment. The number of mice used for each group were saline (n=2), doxorubicin (10 mg/kg, n=2) and tirapazamine (3 mg/kg, n=3).

[4] = Phase I dose-defining study of tirapazamine combined with TAE: tolerability; type: in vivo, human; details: 3 patients per cohort
Description: (§2) In order to test the clinical tolerability and efficacy of tirapazamine combined with TAE in humans, a phase I dose-defining study was initiated in US major medical centers to examine the tolerability, preliminary efficacy and determine the recommended phase 2 dose (RP2D) of tirapazamine when combined with TAE. HCC patients enrolled were Child-Pugh class A, were not surgical candidates and had up to 4 tumor lesions with no tumor lesion size greater than 10 cm and were suitable for embolization. The results of the first 12 evaluable patients were available for analysis.
(§3) Three patients were enrolled in either cohort.

[5] = rat, in vivo
[6] = tested on: hepatocellular carcinoma; assay: Phase I dose-defining study of tirapazamine combined with trans-arterial embolization (TAE): efficacy by contrast MRI, modified RECIST; type: in vivo, human; details: for response on contrast enhanced MRI at 6th week after embolization: individual patients/lesions treated with tirapazamine before TAE
Description: as §2, §3
The preliminary efficacy of the first 12 patients was analyzed and is exemplified in FIG. 4. Efficacy outcome is read by contrast […] based on modified Response Evaluation Criteria In Solid Tumors (RECIST) criteria so that only the size of the viable tumor was measured. […] Three additional patients had over 30% necrosis or partial response (PR). The overall response rate (CR+PR) was 83%.

With `Cc1ccc2c(=O)c3cccc(CC(=O)O)c3oc2c1C` [DMXAA, 5,6-Dimethylxanthenone-4-acetic acid] the “effect on tumor vasculature” value [1] was “nearly immediate shutdown of the tumor vasculature”.

With `COc1ccc(/C=C\c2cc(OC)c(OC)c(OC)c2)cc1O` [combretastatin A4] the “effect on tumor vasculature” value [1] was “nearly immediate shutdown of the tumor vasculature”.

For `COc1cccc2c1C(=O)c1c(O)c3c(c(O)c1C2=O)C[C@@](O)(C(=O)CO)C[C@@H]3O[C@H]1C[C@H](N)[C@H](O)[C@H](C)O1` [doxorubicin], the “total bilirubin in serum” value [2] was “within the normal range”, the “necrosis of HCCs in the territory of the left HAL, Day 7 (H&E)” value [3] was “Little to no pathological changes” and the “necrosis in the HCC within the territory of HAL, Day 1 post-treatment” value [3] was “about 5%”.

For `Nc1n[n+]([O-])c2ccccc2[n+]1[O-]` [tirapazamine], the “toxicities / dose limiting toxicities” value ([4]; intra-arterial (IA) via hepatic artery 5 and 10 mg/m^2 + TAE) was “no observed toxicities or dose limiting toxicities (DLT)”, the “toxicities / dose limiting toxicities” value ([4]; systemic IV infusion 5 and 10 mg/m^2 + TAE) was “no observed toxicities or dose limiting toxicities (DLT)” and the “tolerability of IA administration followed by hepatic artery ligation” value [5] was “well tolerated profile”. The “total bilirubin in serum” value [2] was “within the normal range”, the “tumor necrosis at dissection on Day 7 (pale color)” value ([3]; drug IV + transient HAL, FIG. 2D) was “evident that tumor necrosis occurred” and the “necrosis of HCCs in the territory of the left HAL, Day 7 (H&E)” value [3] was 90-99%. The “inflammatory cell infiltration at margin of necrotic tumor” value ([3]; tirapazamine 3 mg/kg IV + left HAL, day 7, FIG. 3 inserts) was “high degree of inflammatory cell infiltration; also recorded: very strong inflammatory infiltrates”, the “necrosis in the HCC within the territory of HAL, Day 1 post-treatment” value [3] was “more than 99%” and the “effective dose combined with transient HAL” value ([3]; titration study, HBx transgenic mouse model) was 3 mg/kg. The “overall response rate (CR+PR)” value ([6]; first 12 evaluable patients) was 83%, the “patients with over 30% necrosis or partial response (PR)” value ([6]; first 12 evaluable patients) was “Three” and the “response on contrast enhanced MRI at 6th week after embolization” value [6] was “complete response (CR)”. For the same compound, the “response on contrast enhanced MRI at 6th week after embolization” value ([6]; listed as Tirapazamine) was “two treated lesions achieved CR”, the “largest diameter of untreated lesion at 6th week follow-up” value ([6]; one patient, baseline 15 mm, two other lesions (26 and 10 mm) treated with tirapazamine + TAE) was 9 mm and the “complete response (CR) by modified RECIST” value ([6]; single treatment of tirapazamine with TAE, first 12 patients) was 6/12.
